Reference: ChEMBL document CHEMBL1135902, “Molecular interaction of the antagonist N-(piperidin-1-yl)-5-(4-chlorophenyl)-1- (2,4-dichlorophenyl)-4-methyl-1H-pyrazole-3-carboxamide with the CB1 cannabinoid receptor” (J Med Chem, 2002)

Each compound was assayed against Cannabinoid receptor 1 (Rattus norvegicus, UniProt P20272).
Type: cell membranes, Brain, Brain membranes
Description: Inhibition of [3H]CP-55940 binding to cannabinoid receptor 1 in rat brain membranes.

Sequence of Cannabinoid receptor 1 (P20272 whole entry): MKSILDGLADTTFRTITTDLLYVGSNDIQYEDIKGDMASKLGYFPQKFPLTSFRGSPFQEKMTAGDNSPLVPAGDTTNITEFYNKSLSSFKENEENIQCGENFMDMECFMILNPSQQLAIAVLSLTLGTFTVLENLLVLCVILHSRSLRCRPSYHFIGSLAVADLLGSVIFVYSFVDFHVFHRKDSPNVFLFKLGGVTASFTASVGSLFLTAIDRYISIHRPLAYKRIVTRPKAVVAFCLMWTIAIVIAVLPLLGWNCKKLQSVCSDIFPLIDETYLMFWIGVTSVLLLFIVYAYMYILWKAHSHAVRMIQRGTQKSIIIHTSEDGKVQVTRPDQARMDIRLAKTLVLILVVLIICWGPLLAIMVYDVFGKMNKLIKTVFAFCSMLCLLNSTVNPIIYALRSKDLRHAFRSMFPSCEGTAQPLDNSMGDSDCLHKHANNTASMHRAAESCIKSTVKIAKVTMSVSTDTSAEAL

| Structure (SMILES) | Ki |
| --- | --- |
| CCCCn1nc(C(=O)NN2CCCCC2)c(C)c1-c1ccccc1 | 187 nM |
| CCCCCNC(=O)c1nn(-c2ccc(Cl)cc2Cl)c(-c2ccc(Cl)cc2)c1C | 3 nM |
| CCCCc1ccc(-n2nc(C(=O)NN3CCCCC3)c(C)c2-c2ccc(Cl)cc2)cc1 | 256 nM |
| CCCCCn1nc(C(=O)NN2CCCCC2)c(C)c1-c1ccc(Br)cc1 | 63 nM |
| CCCCCn1nc(C(=O)NN2CCCCC2)c(C)c1-c1ccccc1 | 23 nM |
| CCCCCCCn1nc(C(=O)NN2CCCCC2)c(C)c1-c1ccccc1 | 47 nM |
| CCCCCC(=O)c1nn(-c2ccc(Cl)cc2Cl)c(-c2ccc(Cl)cc2)c1C | 25 nM |
| CCCCCc1ccc(-c2c(C)c(C(=O)NN3CCCCC3)nn2-c2ccc(Cl)cc2Cl)cc1 | 1 nM |
| CCCCCCn1nc(C(=O)NN2CCCCC2)c(C)c1-c1ccccc1 | 21 nM |
| O=C(NN1CCCCC1)c1nn(-c2ccc(Cl)cc2Cl)c2c([N+](=O)[O-])cccc12 | 202 nM |
| CCCCCc1ccc(-n2nc(C(=O)NN3CCCCC3)c(C)c2-c2ccc(Cl)cc2)cc1 | 1360 nM |
| CCCCCCCNC(=O)c1nn(-c2ccc(Cl)cc2Cl)c(-c2ccc(Cl)cc2)c1C | 3 nM |
| Cc1c(C(=O)NN2CCCCC2)nn(C2CCCCC2)c1-c1ccccc1 | 391 nM |

Further lines, results first:

| Ki | Structure (SMILES) |
| --- | --- |
| 232 nM | Cc1c(COCCN2CCCCC2)nn(-c2ccc(Cl)cc2Cl)c1-c1ccc(Cl)cc1 |
| 56 nM | Cc1c(C(=O)N(C)C2CCCCC2)nn(-c2ccc(Cl)cc2Cl)c1-c1ccc(Br)cc1 |
| 165 nM | Cc1c(C(=O)NCCO)nn(-c2ccc(Cl)cc2Cl)c1-c1ccc(Br)cc1 |
| 72 nM | Cc1c(C(=O)NN2CCCCC2)nn(-c2ccc(N)cc2)c1-c1ccc(Cl)cc1 |
| 17.1 nM | Cc1c(C(=O)NN2CCCC2)nn(-c2ccc(Cl)cc2Cl)c1-c1ccc(Br)cc1 |
| 6 nM | Cc1c(COCc2ccc(F)cc2)nn(-c2ccc(Cl)cc2Cl)c1-c1ccc(Cl)cc1 |
| 7 nM | CC(=O)c1ccc(-c2c(C#N)c(C(=O)Nc3ccccc3)nn2-c2ccccc2Cl)cc1 |
| 37 nM | CCC(C)c1ccc(-n2nc(C(=O)NN3CCCCC3)c(C)c2-c2ccc(Cl)cc2)cc1 (configuration not stated) |
| 19 nM | Cc1c(C(=O)NN2CCOCC2)nn(-c2ccc(Cl)cc2Cl)c1-c1ccc(Br)cc1 |
| 15 nM | Cc1c(C(=O)NC2CCCCC2)nn(-c2ccc(Cl)cc2Cl)c1-c1ccc(Br)cc1 |
| 109 nM | Cc1c(C(=O)NN2CCCCC2)nn(-c2ccc([N+](=O)[O-])cc2)c1-c1ccc(Cl)cc1 |
| 100 nM | Cc1c(COCC2CCCCC2)nn(-c2ccc(Cl)cc2Cl)c1-c1ccc(Cl)cc1 |
| 55 nM | Cc1c(C(=O)NN2CCCCC2)nn(-c2ccc(Cl)cc2)c1-c1ccc(Cl)cc1 |
| 746 nM | O=C(NN1CCCCC1)c1nn(-c2ccc(Cl)cc2Cl)c2c(Cl)cccc12 |
